Patent publication US6951869B2, “Use of leukotriene receptor antagonist for treatment of scarring” (priority 2002, dated 2005)

How the values were obtained:
capsular contracture = experiment: Treatment of capsular contracture after breast implantation in patients (case reports, Bakers Class); assay type: in vivo, human
Description: The breasts remained soft until 4 years and 2 months following the operation. The left breast then developed Bakers Class III capsular contracture, but the right breast remained soft. Patient was then placed on ACCOLATE® 20 mg, twice daily. One month following the prescription of ACCOLATE®, the left breast was softer (Bakers Class II) and three months later, it was even softer (Bakers Class I). Four months following ACCOLATE® therapy, both breasts were soft again (Bakers Class I). […] Two weeks following the operation, patient developed bilateral Bakers Class III capsular contractures. […] Three months following the ACCOLATE® therapy, both breasts had achieved Bakers Class I status and at 8 months post-ACCOLATE® therapy, both breasts remained soft and at Bakers Class I level. […] Twenty days following the second operation, patient noted an increasing firmness of both breasts and breast massage and vitamin E therapy was continued. However, four months following the second operation, patient developed a severe capsular contracture in the left breast (Bakers Class IV). The right breast, however, remained soft (Bakers Class I). Patient was placed on ACCOLATE® at 20 mg twice daily. […] person was diagnosed with infiltrating ductal carcinoma in the left breast in June of 2000. Patient underwent a modified radical mastectomy with immediate reconstruction with placement of a tissue expander. […] Postoperatively, patient received chemotherapy (ADRIAMYCIN®, Cyclophosphamide, TAXOL®) and was placed on a study protocol for HERCEPTIN®. In February of 2001, patient underwent exchange of the tissue expander for a […] textured saline implant which was placed submuscularly. Six weeks following the implant placement, patient received local radiation therapy to the left breast of which they received a total of 5000 rads. Immediately following the radiation therapy, patient noted redness and blistering of the skin surrounding the left breast. Three weeks post-radiation therapy, patient noted hardening of the left breast mound, which quickly progressed to a Bakers Class IV capsular contracture by the fifth week following radiation therapy. […] Patient was then placed on ACCOLATE® therapy at 20 mg twice a day. […] Additionally, patient noted a significant improvement in the mastectomy scar which had been extremely hard and firm prior to the ACCOLATE® therapy. […] person underwent augmentation mammoplasty in 1986. 250 cc silicon implants were placed on each side above the muscle. Postoperatively the subject had no complications. The breasts remained soft for 5 years. In 1991, subject noted increasing firmness in both breasts. Subject received no treatment at that time. 17 years after surgery, subject was presented for possible surgical intervention. Upon examination, subject was noted to have Bakers Class IV capsular contractures bilaterally and was placed on Zafirlukast (Accolate®) 20 mg two times daily. […] Three months post Zafirlukast (Accolate®) therapy, subject went progressed a Bakers Class IV to a Bakers Class III on the right and a Bakers Class II on the left.

mastectomy scar = experiment: Effect on mastectomy scar in a patient (case report); assay type: in vivo, human; conditions: Example IV patient, scar extremely hard and firm before therapy; 20 mg twice a day
Text: Person was diagnosed with infiltrating ductal carcinoma in the left breast in June of 2000. Patient underwent a modified radical mastectomy with immediate reconstruction with placement of a tissue expander. […] Postoperatively, patient received chemotherapy (ADRIAMYCIN®, Cyclophosphamide, TAXOL®) and was placed on a study protocol for HERCEPTIN®. In February of 2001, patient underwent exchange of the tissue expander for a […] textured saline implant which was placed submuscularly. Six weeks following the implant placement, patient received local radiation therapy to the left breast of which they received a total of 5000 rads. Immediately following the radiation therapy, patient noted redness and blistering of the skin surrounding the left breast. Three weeks post-radiation therapy, patient noted hardening of the left breast mound, which quickly progressed to a Bakers Class IV capsular contracture by the fifth week following radiation therapy. […] Patient was then placed on ACCOLATE® therapy at 20 mg twice a day. […] Additionally, patient noted a significant improvement in the mastectomy scar which had been extremely hard and firm prior to the ACCOLATE® therapy.

[1] = 20 mg twice daily accepted dosage, adults and children ages 12 and up; cited from earlier work
[2] = Example IV patient, 20 mg twice a day, after one month

COc1cc(C(=O)NS(=O)(=O)c2ccccc2C)ccc1Cc1cn(C)c2ccc(NC(=O)OC3CCCC3)cc12 [ACCOLATE®]
Softness of breast implant (capsular contracture; Example IV patient, post-radiation Bakers Class IV before therapy, 20 mg twice a day, two weeks): noticeable softening
Bakers Class of capsular contracture, left breast implant (capsular contracture; [2]): approaching a Bakers Class I softness
Pain and distortion (capsular contracture; [2]): completely gone
Softness of both breasts (capsular contracture; Example V patient, bilateral Bakers Class IV before therapy, 20 mg two times daily, 3 weeks): some improvement
Mastectomy scar appearance and hardness (mastectomy scar): both softer and less noticeable
Reported side effect: headaches [1]: 12.9%
Reported side effect: nausea [1]: 3.1%

vitamin E
Relief of capsular contracture (capsular contracture; Example IV patient, Bakers Class IV, given with breast massage, before ACCOLATE therapy): without relief
